The source of these data is BindingDB's records for patent US20240158369 (Wigen Biomedicine Technology (Shanghai), 2024).

The experiment concerns the target Wee1-like protein kinase (Homo sapiens, UniProt P30291). Put plainly: In-Vitro Assay. The protocol:
The inhibitory effect of the compounds on the enzyme activity of recombinant protein Wee-1 was determined by HTRF. The procedures are as follows: After DMSO or serially diluted compounds (up to 200 nM, 1:5 diluted) and recombinant proteins were co-incubated in a kinase buffer at 37° C. for 30 min before Fluorescein-PolyGAT and ATP were added, and the reaction was initiated by addition of a substrate. After incubation at room temperature for 90 min, an antibody and a detection solution were added, and after further incubation at room temperature for 60 min, fluorescence values were detected (excitation wavelength: 340 nm, emission wavelengths: 495 and 520 nm). The 520 nm/495 nm fluorescence intensity ratio value was calculated, and compared with that of the DMSO group, and then the inhibition percentages and IC50 values of the compounds were calculated.

Each structure is given as a SMILES string.

Broadly, the IC50 is the concentration that inhibits the measured activity by half. The low end stands for higher potency, the high end for lower potency.

Wee1-like protein kinase, sequence (P30291 whole entry): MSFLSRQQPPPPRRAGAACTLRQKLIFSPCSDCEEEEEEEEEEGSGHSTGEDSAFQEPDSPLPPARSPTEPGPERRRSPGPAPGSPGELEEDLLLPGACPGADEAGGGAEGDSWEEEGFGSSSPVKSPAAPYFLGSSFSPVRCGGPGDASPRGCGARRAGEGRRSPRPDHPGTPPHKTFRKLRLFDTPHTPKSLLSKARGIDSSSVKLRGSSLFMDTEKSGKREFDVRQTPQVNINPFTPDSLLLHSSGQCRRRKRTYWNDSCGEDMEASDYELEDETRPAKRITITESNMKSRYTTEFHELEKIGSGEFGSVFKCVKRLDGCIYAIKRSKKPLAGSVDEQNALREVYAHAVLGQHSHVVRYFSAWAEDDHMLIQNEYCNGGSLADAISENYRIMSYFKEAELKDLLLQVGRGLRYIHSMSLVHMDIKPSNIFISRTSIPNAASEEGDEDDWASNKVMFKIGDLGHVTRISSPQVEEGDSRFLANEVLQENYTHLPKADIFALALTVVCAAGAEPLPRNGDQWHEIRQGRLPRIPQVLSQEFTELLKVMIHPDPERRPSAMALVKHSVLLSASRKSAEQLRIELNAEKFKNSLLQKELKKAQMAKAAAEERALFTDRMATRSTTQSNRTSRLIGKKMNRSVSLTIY

`CC(C)Cc1cc(Nc2ncc(C#N)c(Nc3cccc(N=S(C)(C)=O)n3)n2)cc2c1CCN(C)C2` [US20240158369, Compound 87] returned an IC50 below 10 nM.
